Where “and” joins values, the source holds several entries; their conditions need not be identical. Identical values can stand only once.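 Tested at 5 concentrations; 48 h exposure; 96-well plates; endpoints linearly interpolated, else capped at highest concentration. GI50 is the concentration that inhibits growth by half. TGI: total growth inhibition.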
Legend:
Assay in all cases: inhibition of tumour cell growth, NCI panel, 48 h
786-0 renal = tested on: 786-0 renal
UO-31 renal = tested on: UO-31 renal
LOX IMVI melanoma = tested on: LOX IMVI melanoma
A498 renal = tested on: A498 renal
EKVX NSCLC = tested on: EKVX NSCLC
SF-539 CNS = tested on: SF-539 CNS
HT29 colon = tested on: HT29 colon
SF-295 CNS = tested on: SF-295 CNS
K-562 leukemia = tested on: K-562 leukemia
MALME-3M melanoma = tested on: MALME-3M melanoma

Structure (SMILES)	TGI (786-0 renal)	TGI (UO-31 renal)	TGI (LOX IMVI melanoma)	TGI (A498 renal)	TGI (EKVX NSCLC)	TGI (SF-539 CNS)	TGI (HT29 colon)	TGI (SF-295 CNS)	TGI (K-562 leukemia)	TGI (MALME-3M melanoma)	GI50 (786-0 renal)	GI50 (UO-31 renal)	GI50 (LOX IMVI melanoma)	GI50 (A498 renal)	GI50 (EKVX NSCLC)	GI50 (SF-539 CNS)	GI50 (HT29 colon)	GI50 (SF-295 CNS)	GI50 (K-562 leukemia)	GI50 (MALME-3M melanoma)
CN(C)c1ccc(/C=C2\N=C(c3ccc(N)cc3)OC2=O)cc1	> 100 µM	> 100 µM	> 100 µM	> 100 µM	> 100 µM	> 100 µM	> 100 µM	> 100 µM	> 100 µM	> 100 µM										
O=c1[nH]nc2c3c(cccc13)NC(CN1Cc3ccccc3C1)=N2	> 100 µM	> 100 µM	> 100 µM	> 100 µM	> 100 µM	> 100 µM	> 100 µM	> 100 µM	> 100 µM	> 100 µM	6.62 µM	4.79 µM	3.16 µM	4.7 µM	3.92 µM	7.9 µM	3.45 µM	5.61 µM	8.19 µM	49.1 µM
COC[C@H]1OC(=O)c2coc3c2[C@@]1(C)C1=C(C3=O)[C@@H]2CCC(=O)[C@@]2(C)C[C@H]1OC(C)=O	> 100 µM	> 72.8 µM	53.8 µM	17.3 µM	> 100 µM	31 µM	97.8 µM	63.1 µM	> 100 µM	39.3 µM				0.58 µM						1.44 µM
COc1cccc(/C=C/C(=O)c2cc3c(N)c(C(=O)Nc4cccc(Cl)c4C)sc3nc2C)c1	1.83 µM	1.97 µM	1.45 µM	3.07 µM	> 31.8 µM	2.01 µM	2.41 µM	9.56 µM	> 50 µM	7.76 µM	0.823 µM	0.809 µM	0.676 µM	0.897 µM	2.61 µM	0.967 µM	0.418 µM	1.5 µM	0.241 µM	1.34 µM
CC(C)(C)C(=O)C(c1ccc(-c2cscn2)cc1)c1ccc(-c2cscn2)cc1	78.7 µM	> 81.9 µM	> 100 µM	65.8 µM	> 100 µM	> 56.3 µM	> 100 µM	84.5 µM	> 100 µM	> 100 µM										
Cc1c(CN2CCC(Nc3ncnc4sc(CC(F)(F)F)cc34)CC2)ccc2c1cc(C#N)n2Cc1cn[nH]c1	21.9 µM	20.1 µM and > 41.2 µM	2.88 µM and 7.5 µM	79.4 µM and > 39.1 µM	21.2 µM and > 43.4 µM	> 51.4 µM	5.95 µM	14.9 µM	4.17 µM and 4.95 µM	2.95 µM and 15.3 µM	4.92 µM and 4.44 µM	2.25 µM and 2.46 µM	1.35 µM and 2.36 µM	7.55 µM	1.92 µM and 3.08 µM	7.37 µM and 15 µM	1.75 µM and 2.45 µM	2.72 µM and 3.06 µM	0.883 µM and 1.14 µM	1.31 µM and 2.77 µM
O=C(N/N=C/c1ccc(O)cc1O)c1ccc(Nc2ccnc(C(F)(F)F)c2)cc1	> 100 µM	> 100 µM	> 100 µM	97.4 µM	> 75.1 µM	24.5 µM	> 100 µM	23.3 µM	> 100 µM	> 45.6 µM	31.2 µM	> 24.3 µM	8.31 µM	> 41.3 µM	8.91 µM	6.32 µM	> 100 µM		> 20.7 µM	0.661 µM
O[C@]12CCCC[C@H]1CCC2	> 100 µM	> 100 µM	> 100 µM	> 100 µM	> 100 µM	> 100 µM	> 100 µM	> 100 µM	> 100 µM	> 100 µM										
Clc1cc(Cl)cc(N2N=C(c3cccc(Nc4ccncc4)c3)CC2c2ccc(Br)cc2)c1 (stereo unspecified)	3.32 µM	2.69 µM	3.06 µM	2.3 µM	3.2 µM	3.12 µM	3.66 µM	3.2 µM	5.69 µM	3.5 µM	1.74 µM	1.39 µM	1.7 µM	1.08 µM	1.6 µM	1.7 µM	1.87 µM	1.79 µM	2.26 µM	1.71 µM
CCc1oc2ccccc2c1C(=O)c1cc(Br)c(O)c(Br)c1	55.6 µM	40.1 µM	55.3 µM	45 µM	95.2 µM	32.9 µM	74.7 µM	83.5 µM	82.7 µM	43.2 µM										
Cc1ccc(C(=O)N/N=C/c2cccc(Oc3ccccc3)c2)cn1	> 100 µM	> 100 µM	> 100 µM	> 100 µM	> 100 µM	> 59.1 µM	> 100 µM	> 36.5 µM	> 100 µM	> 100 µM	29.1 µM	19.6 µM	8.54 µM	9.99 µM	8.36 µM	10.6 µM	3.25 µM	3.36 µM	1.81 µM	9.14 µM
CC(=O)Oc1cccc2c1C(=O)C(Br)(Br)CCC2	11.4 µM	23.2 µM	6.26 µM	33.4 µM	26.7 µM	23.1 µM	14 µM	31.3 µM	20.8 µM	5.59 µM										
CC(=S)NNC(=O)c1ccncc1	> 100 µM	> 100 µM	> 100 µM	> 100 µM	> 100 µM	> 100 µM	> 100 µM	> 100 µM	> 100 µM	> 100 µM										
c1cncc(CNc2ccccc2-c2nnc(Nc3ccc4c(c3)OCCO4)o2)c1	> 100 µM	> 100 µM	> 100 µM	1.8 µM	> 100 µM	> 100 µM	15.2 µM	> 100 µM	> 100 µM	> 100 µM	0.366 µM	4.69 µM	0.183 µM	0.138 µM	0.609 µM	0.115 µM	0.0504 µM	0.0936 µM	0.0432 µM	19.2 µM
CCOc1cc2ncc(C#N)c(Nc3ccc(F)c(Cl)c3)c2cc1NC(=O)/C=C/CN(C)C	2 µM	> 3.46 µM	2.14 µM	0.799 µM	> 6.51 µM	2.31 µM	> 5.95 µM	> 10 µM	> 4.21 µM	1.87 µM	0.339 µM	0.046 µM	0.761 µM	0.145 µM	0.0187 µM	0.826 µM	0.827 µM	2.25 µM	0.36 µM	0.36 µM
